Patent US20190167611A1, “METHODS OF TREATING OR PREVENTING AMYLOID RELATED IMAGING ABNORMALITIES ASSOCIATED WITH ALZHEIMER'S DISEASE TREATMENT” (BIOGEN CHESAPEAKE LLC, priority 2016, published 2019)

Assays:
[1] = human, in vivo
Protocol: The two groups are referred to as the 0.4 mg/day group and the 3.0 mg/day group, respectively.

[2] = test system: Alzheimer's disease patients who present with clinically significant ARIA; test: Clinical trial of glyburide plus standard of care versus placebo in Alzheimer's disease patients with clinically significant ARIA; format: in vivo, human; conditions: glyburide 0.5-3.0 mg/day, several routes
Protocol: In one arm, glyburide is administered as a bolus followed by continuous infusion. In a second arm, glyburide is administered via a transdermal patch or gel. In a third arm, glyburide is administered via injection. In a fourth arm, glyburide is administered orally. […] Total treatment duration will be a minimum of 72 hours and will continue as needed until acute brain edema has stabilized. […] Plasma levels of glyburide are determined daily or weekly. Each patient is monitored via blood sampling and MRI. Magnetic resonance imaging scans monitor patients for amyloid-related imaging abnormalities and progression of edema and/or associated hemorrhage. FLAIR sequences are evaluated for the presence of ARIA. A 4-point scale is used to assess presence of ARIA. The percentages of patients with ARIA are compared between treatment groups and placebo group.

Compound | Metabolite exposure in relation to the administered dose of RP-1127 [1] | Dose dependence of pharmacokinetics [1] | ARIA compared with the control group [2] | Brain edema compared with the control group [2] | Functional recovery compared with the control group [2] | Hemorrhage volume compared with the control group [2]
COc1ccc(Cl)cc1C(=O)NCCc1ccc(S(=O)(=O)NC(=O)N[C@@H]2CCC[C@H](O)C2)cc1 [M2] | approximately proportional | – | – | – | – | –
COc1ccc(Cl)cc1C(=O)NCCc1ccc(S(=O)(=O)NC(=O)NC2CCCCC2)cc1 [glyburide] | – | dose-independent pharmacokinetics | significantly reduced or inhibited | reduced brain edema | improved functional recovery | reduced hemorrhage volume
COc1ccc(Cl)cc1C(=O)NCCc1ccc(S(=O)(=O)NC(=O)NC2CCC(O)CC2)cc1 (stereo not shown) [M1] | approximately proportional | – | – | – | – | –
